Measurements published in US20140303105A1, “Primycin and components thereof for use in the treatment or prevention of infections caused by specific pathogens” (PANNONPHARMA GYÓGYSZERGYÁRTÓ ZRT., priority 2011, published 2014).
Like-named read-outs stand apart in the source and are kept apart here.

Experiments:
Micrococcus = details: by Bryskier; cited from earlier work
Escherichia coli = details: by Bryskier; cited from earlier work
[1] = test system: Staphylococcus aureus, methicillin resistant; assay: Standard microdilution susceptibility test, clinical isolates; format: cell-based; details: 10 clinical isolates
[2] = test system: enterococci and S. pyogenes; details: Bryskier 2005; cited from earlier work
[3] = test system: Streptococcus viridans sp.; assay: Standard microdilution susceptibility test, clinical isolates; format: cell-based; details: 20 clinical isolates
[4] = test system: Corynebacterium spp., Enterobacteriaceae species, Pseudomonas aeruginosa, yeasts and dermatophytes; details: Bryskier 2005; cited from earlier work
[5] = test system: Staphylococcus epidermidis 7586; details: cited from earlier work
[6] = test system: Enterococcus faecalis ATCC 29212; assay: Microdilution MIC, ATCC reference strains; format: cell-based
Method: (§1) Identification and characterization of resistance patterns of these bacteria were performed by standard methods.
(§2) When forming the test groups we attached great importance to the increasing incidence of drug-resistant microbes causing therapeutic problems. Most important of them are methicillin-resistant Staphylococcus aureus (MRSA), methicillin-resistant coagulase-negative Staphylococcus spp. (MRCoNS), penicillin-resistant Streptococcus pneumoniae (pneumococcus), vancomycin-resistant Enterococcus spp. (VRE). Pneumococcus isolates represented various serotypes, VRE isolates belonged to various species. Moreover, vancomycin-resistance of VRE isolates was based on different genetic backgrounds. Antibiotic-resistant strains were also represented among international reference strains, for example methicillin-resistant Staphylococcus aureus ATCC 43300 (MRSA), Staphylococcus aureus with decreased vancomycin susceptibility ATCC 700698 and 700699 (vancomycin intermediate Staphylococcus aureus—VISA), mupirocin-resistant Staphylococcus aureus ATCC BAA1708 and vancomycin-resistant Enterococcus faecalis ATCC 51299 (VRE).
(§3) Susceptibility tests were performed according to the standard microdilution method (NCCLS (CLSI) M7-A7).
(§4) The lowest concentration at which no bacterial growth was observed after the incubation period is the Minimal Inhibitory Concentration (MIC). The MIC value is inversely proportional to the antimicrobial efficacy. MIC values of antimicrobial agents can differ by species or even by bacterial strains within species.

[7] = test system: Enterococcus faecalis ATCC 51299 (VRE); assay: Microdilution MIC, ATCC reference strains; format: cell-based
Method: as §1, §2, §3, §4

[8] = test system: Staphylococcus aureus ATCC 700698 (VISA); assay: Microdilution MIC, ATCC reference strains; format: cell-based
Method: as §1, §2, §3, §4

[9] = test system: Staphylococcus aureus ATCC 29213; assay: Microdilution MIC, ATCC reference strains; format: cell-based
Method: as §1, §2, §3, §4

[10] = test system: Staphylococcus aureus ATCC BAA1708 (mupirocin-resistant); assay: Microdilution MIC, ATCC reference strains; format: cell-based
Method: as §1, §2, §3, §4

[11] = test system: Staphylococcus aureus ATCC 25923; assay: Microdilution MIC, ATCC reference strains; format: cell-based
Method: as §1, §2, §3, §4

[12] = test system: Escherichia coli ATCC 25922; assay: Microdilution MIC, ATCC reference strains; format: cell-based
Method: as §1, §2, §3, §4

[13] = test system: Enterococcus hirae ATCC 8043; assay: Microdilution MIC, ATCC reference strains; format: cell-based
Method: as §1, §2, §3, §4

[14] = test system: Bacillus subtilis ATCC 6633; assay: Microdilution MIC, ATCC reference strains; format: cell-based
Method: as §1, §2, §3, §4

Streptococcus ATCC 49619 = assay: Microdilution MIC, ATCC reference strains; format: cell-based
Method: as §1, §2, §3, §4

[15] = test system: Staphylococcus aureus ATCC 700699 (VISA); assay: Microdilution MIC, ATCC reference strains; format: cell-based
Method: as §1, §2, §3, §4

[16] = test system: Staphylococcus aureus ATCC 43300 (MRSA); assay: Microdilution MIC, ATCC reference strains; format: cell-based
Method: as §1, §2, §3, §4

Propionibacterium acnes [17] = details: cited from earlier work
[18] = test system: Staphylococcus aureus 7503; details: cited from earlier work
Micrococcus spp. = details: cited from earlier work
[19] = test system: Streptococcus simulans 7866; details: cited from earlier work
Gram-negative species [20] = details: Horváth 1979; the patent calls the statement unfounded; cited from earlier work
Gram-negative species [21] = details: crystalline primycin and amorphous predecessor; Uri and Actor 1979; cited from earlier work
[22] = test system: Enterobacter cloacae B 520; details: cited from earlier work
Propionibacterium acnes [23] = details: by Bryskier; cited from earlier work
[24] = test system: Serotype β Streptococcus 8252; details: cited from earlier work
[25] = test system: Enterococcus sp., vancomycin susceptible; assay: Standard microdilution susceptibility test, clinical isolates; format: cell-based; details: 20 clinical isolates
[26] = test system: Bacillus spp. and Micrococcus spp.; details: Bryskier 2005; cited from earlier work
[27] = test system: Staphylococcus hominis 7835; details: cited from earlier work
[28] = test system: laboratory strain Listeria monocytogenes; details: Uri 1986; cited from earlier work
Streptococcus mitis = details: by Bryskier; cited from earlier work
Enterobacter cloacae = details: by Bryskier; cited from earlier work

Primycin
MIC (Micrococcus): 0.78 µg/mL
MIC (Escherichia coli): 50 µg/mL
MIC 50% [1]: 0.06 µg/mL
MIC 90% [1]: 0.06 µg/mL
MIC Range [1]: 0.06-0.06 mg/L
Ratio of Sensitive/Total [1]: 10/10
efficacy [2]: moderate efficacy
MIC 50% [3]: 1 µg/mL
MIC 90% [3]: 1 µg/mL
MIC Range [3]: 0.5 to 1 µg/mL
Ratio of Sensitive/Total [3]: 20/20
efficacy [4]: ineffective
MIC [5]: 0.78 µg/mL
Primycin MIC [6]: 0.5 µg/mL
Primycin MIC [7]: 1 µg/mL
Primycin MIC [8]: 0.06 µg/mL
Primycin MIC [9]: 0.06 µg/mL
Primycin MIC [10]: 0.06 µg/mL
Primycin MIC [11]: 0.06 µg/mL
Primycin MIC [12]: >64 µg/mL
Primycin MIC [13]: 0.5 µg/mL
Primycin MIC [14]: 0.03 µg/mL
Primycin MIC (Streptococcus ATCC 49619): 0.5 µg/mL
Primycin MIC [15]: 0.125 µg/mL
Primycin MIC [16]: 0.06 µg/mL
MIC (Propionibacterium acnes [17]): <0.1 µg/mL
MIC [18]: 0.39 µg/mL
MIC (Micrococcus spp.): 0.78 µg/mL
MIC [19]: 0.39 µg/mL
MIC versus Gram-positives (Gram-negative species [20]): hundred times higher
efficacy against Gram-negative species (Gram-negative species [21]): ineffective
MIC [22]: 50.0 µg/mL
MIC (Propionibacterium acnes [23]): <0.1 µg/mL
MIC [24]: 1.56 µg/mL
MIC 50% [25]: 0.5 µg/mL
MIC 90% [25]: 0.5 µg/mL
MIC Range [25]: 0.5 to 1 µg/mL
Ratio of Sensitive/Total [25]: 20/20
efficacy [26]: effective
MIC [27]: 0.39 µg/mL
MIC [28]: 0.25 µg/mL
MIC (Streptococcus mitis): 50 µg/mL
MIC (Enterobacter cloacae): 50 µg/mL
